From publication PMC6792352, “Limited Chemical Structural Diversity Found to Modulate Thyroid Hormone Receptor in the Tox21 Chemical Library” (Environmental Health Perspectives, 2019)
Structures can show the parent of a compound that is named as a salt. Where two headings read alike, the source gives them in different places.

System: GH3-TRE-Luc cell line
Details: read-out: AC50 (uM) modified / 1000, viability, 1 nM T3 present, 24 h

For `CC(C)(C)c1ccc(C(O)CCCN2CCC(C(O)(c3ccccc3)c3ccccc3)CC2)cc1` (centres unmarked) [Terfenadine], the CC50 (Tox21_110001=Tox21_110296) was 5.45 µM.
Compound `CCCCCCCCCCCCCCn1cc[n+](C)c1` [1-Methyl-3-tetradecylimidazolium chloride] has a CC50 (Tox21_110001=Tox21_202660) of 8.43 µM.
`CC(C)NCC(O)COc1cccc2ccccc12` (centres unmarked) [Propranolol hydrochloride] showed a CC50 (Tox21_110001=Tox21_201886) of 73 µM and a CC50 (Tox21_110001=Tox21_302905) of 30.5 µM.
Compound `CC/C(=C(\c1ccccc1)c1ccc(OCCN(C)C)cc1)c1ccccc1` [Tamoxifen citrate] has a CC50 (Tox21_110001=Tox21_110938) of 5.89 µM, a CC50 (Tox21_110001=Tox21_202070) of 10.9 µM and a CC50 (Tox21_110001=Tox21_300274) of 4.69 µM.
With `NCCc1ccc(O)c(O)c1` [Dopamine] the CC50 (Tox21_110001=Tox21_110167) was 37 µM.
For `CCN(CC)CCCC(C)Nc1ccnc2cc(Cl)ccc12` (centres unmarked) [Chloroquine bis(phosphate)], the CC50 (Tox21_110001=Tox21_110115) was 19.6 µM.
With `Nc1ccn([C@@H]2O[C@H](CO)[C@@H](O)[C@@H]2O)c(=O)n1` [Cytarabine hydrochloride] the CC50 (Tox21_110001=Tox21_300488) was 0.11 µM.
In the case of `CCCCCCCC[N+](C)(CCCCCCCC)CCCCCCCC` [Methyltrioctylammonium chloride], the CC50 (Tox21_110001=Tox21_302198) was 5.04 µM.
Compound `Nc1ccccc1N` [1,2-Phenylenediamine] has a CC50 (Tox21_110001=Tox21_400014) of 73.8 µM.
`CCC(C)(C)C(=O)O[C@H]1C[C@@H](C)C=C2C=C[C@H](C)[C@H](CC[C@@H]3C[C@@H](O)CC(=O)O3)[C@H]21` [Simvastatin] was tested, and the CC50 (Tox21_110001=Tox21_300400) was 72.4 µM.
Work on `NNc1nncc2ccccc12` [Hydralazine hydrochloride] yielded a CC50 (Tox21_110001=Tox21_302496) of 73.4 µM.
For `Cc1ncc[nH]1` [2-Methylimidazole], the CC50 (Tox21_110001=Tox21_111136) was 0.0572 µM.
`O=C(OC[C@H]1O[C@@H](OC(=O)c2cc(O)c(O)c(OC(=O)c3cc(O)c(O)c(O)c3)c2)[C@H](OC(=O)c2cc(O)c(O)c(OC(=O)c3cc(O)c(O)c(O)c3)c2)[C@@H](OC(=O)c2cc(O)c(O)c(OC(=O)c3cc(O)c(O)c(O)c3)c2)[C@@H]1OC(=O)c1cc(O)c(O)c(OC(=O)c2cc(O)c(O)c(O)c2)c1)c1cc(O)c(O)c(OC(=O)c2cc(O)c(O)c(O)c2)c1` [Tannic acid] gave a CC50 (Tox21_110001=Tox21_111422) of 3.05 µM and a CC50 (Tox21_110001=Tox21_300079) of 15.7 µM.
`CCCCCCCCCCn1cc[n+](C)c1` [1-Decyl-3-methylimidazolium chloride] gave a CC50 (Tox21_110001=Tox21_202623) of 22.3 µM.
Compound `CCCCCCCCCCn1cc[n+](C)c1` [1-Decyl-3-methylimidazolium trifluoromethanesulfonate] has a CC50 (Tox21_110001=Tox21_200593) of 6.68 µM.
For `CN(C)CCOc1ccccc1Cc1ccccc1` [Phenyltoloxamine citrate], the CC50 (Tox21_110001=Tox21_110862) was 9.16 µM.
`O=c1c(-c2ccc(O)cc2)coc2cc(O)cc(O)c12` [Genistein] showed a CC50 (Tox21_110001=Tox21_110161) of 24.6 µM, a CC50 (Tox21_110001=Tox21_201428) of 38.3 µM and a CC50 (Tox21_110001=Tox21_300585) of 57.7 µM.
Compound `CCCSc1ccc2nc(NC(=O)OC)[nH]c2c1` [Albendazole] has a CC50 (Tox21_110001=Tox21_110659) of 0.271 µM.
For `COc1ccc(C(=O)/C(Br)=C\C(=O)O)cc1` [Bromebric acid], the CC50 (Tox21_110001=Tox21_111900) was 31.6 µM.
For `Cc1oncc1C(=O)Nc1ccc(C(F)(F)F)cc1` [Leflunomide], the CC50 (Tox21_110001=Tox21_110182) was 9.39 µM and the CC50 (Tox21_110001=Tox21_301873) was greater than 90 µM.
With `Cc1ccc(-c2cc(C(F)(F)F)nn2-c2ccc(S(N)(=O)=O)cc2)cc1` [Celecoxib] the CC50 (Tox21_110001=Tox21_111135) was 21.2 µM, the CC50 (Tox21_110001=Tox21_201964) was 46.6 µM and the CC50 (Tox21_110001=Tox21_300599) was 62.4 µM.
Compound `[H]/N=C(\N/C(=N/[H])NCCCCCCNC(=N)NC(=N)Nc1ccc(Cl)cc1)Nc1ccc(Cl)cc1` [Chlorhexidine dihydrochloride] has a CC50 (Tox21_110001=Tox21_302689) of 5.24 µM.
For `Clc1ccc(COC(Cn2ccnc2)c2ccc(Cl)cc2Cl)cc1` (centres unmarked) [Econazole nitrate], the CC50 (Tox21_110001=Tox21_110852) was 13.9 µM, the CC50 (Tox21_110001=Tox21_200771) was 23.8 µM and the CC50 (Tox21_110001=Tox21_303391) was 29.6 µM.
`C[C@]12CC[C@@H]3c4ccc(O)cc4C[C@@H](CCCCCCCCC[S+]([O-])CCCC(F)(F)C(F)(F)F)[C@H]3[C@@H]1CC[C@@H]2O` (some centres unmarked) [Fulvestrant] gave a CC50 (Tox21_110001=Tox21_110939) of 0.00438 µM, a CC50 (Tox21_110001=Tox21_202604) of 0.00683 µM and a CC50 (Tox21_110001=Tox21_303656) of 2.26 µM.
With `Nc1ccc(Nc2ccccc2)cc1` [N-Phenyl-1,4-benzenediamine] the CC50 (Tox21_110001=Tox21_202144) was 42.9 µM and the CC50 (Tox21_110001=Tox21_300027) was 22.6 µM.
With `CNCCC(Oc1ccc(C(F)(F)F)cc1)c1ccccc1` (centres unmarked) [Fluoxetine] the CC50 (Tox21_110001=Tox21_110144) was 8.3 µM.
In the case of `CCCCCCCCCCCC[N+](C)(C)Cc1ccccc1` [Benzyldodecyldimethylammonium bromide], the CC50 (Tox21_110001=Tox21_113091) was 5.39 µM.
